Test results taken from patent US20260034173A1, “USE OF MANGANESE-CONTAINING COMPOUND IN REDUCING LEVEL OF URIC ACID OF MAMMALIAN SUBJECT” (Shanghai Shiqu Pharmaceutical Technology Co., Ltd., priority 2022, published 2026).

How the values were obtained:
[1] = test system: urate oxidase knockout (UOX KO) mice; assay: Experiment on urate oxidase knockout (UOX KO) mice; type: in vivo; conditions: gavage daily; blood and 24-hour urine
Excerpt: Urate oxidase knockout (UOX KO) mice aged 6 to 8 weeks were selected, and urine and blood were collected after one week of acclimation to test urine uric acid and blood uric acid levels. […] Mice were gavaged with corresponding drugs daily. After the start of drug administration, the blood of mice was collected every other week to prepare serum, and 24-hour urine was collected to detect the uric acid content in the urine using a uric acid assay kit.

[2] = test system: oteracil potassium and adenine induced hyperuricemia model mice; assay: Oteracil potassium and adenine induced hyperuricemia model mice; type: in vivo, KM mice; conditions: day 6; allopurinol 50 mg/L drinking water, febuxostat 5 mg/kg/day gavage, manganese oxides 1.16 w/w % in diet
Excerpt: Oteracil potassium and adenine are known to be model drugs capable of inducing hyperuricemia in mice. Specifically, oteracil potassium is a urate oxidase inhibitor that can inhibit further metabolism of uric acid in mice, thereby increasing the concentration of uric acid in the blood of mice; adenine can damage the kidneys, thereby reducing the excretion of uric acid from the kidneys of mice. […] Six days after the beginning of the experiment, 24-hour urine of each group of mice was collected and uric acid content in the urine was detected by the uric acid assay kit to investigate the effects of various experimental substances on the amount of uric acid excreted in the urine of mice.
The control group was fed with basic mouse diet the first day (i.e. the day of the experiment) to the seventh day after the start of the experiment, and the other groups were fed with modeling mouse diet (4.4 w/w % oteracil potassium and 0.44 w/w % adenine were added into the basic mouse diet) for inducing hyperuricemia. […] The uric acid level in urine was measured using a uric acid assay kit (Solarbio, Beijing, China), and the amount of uric acid excreted through urine in 24 hours was calculated based on the urine volume.

[3] = test system: oteracil potassium and hypoxanthine induced hyperuricemia model mice; assay: Oteracil potassium and hypoxanthine induced hyperuricemia model mice; type: in vivo, C57BL/6J mice; conditions: day 8; benzbromarone 10 mg/kg gavage, allopurinol 50 mg/L drinking water, manganese oxides 1.14 w/w % in diet
Procedure: Hypoxanthine can be metabolized into uric acid in the body, so it can also be used in combination with oteracil potassium as a model drug for inducing hyperuricemia in mice. In this example, the healthy mice were randomly divided into 7 groups, the mouse hyperuricemia model was established by administering oteracil potassium and hypoxanthine (they were injected intraperitoneally together) to 6 groups of mice, and 1 group of healthy mice injected intraperitoneally with normal saline was taken as the blank control group. The mice of the experimental groups were given the corresponding experimental substances according to the dosing regimen described in the following experimental method.
From the first day (i.e. the day of the experiment) to the eighth day after the start of the experiment, the blank control group was intraperitoneally injected with normal saline at 9:00 a.m. and 5:00 p.m. every day, and the remaining groups were intraperitoneally injected with modeling solution (100 mg/kg hypoxanthine+100 mg/kg oteracil potassium) at 9:00 am, and 5:00 p.m. every day. The benzbromarone group was administered with benzbromarone solution (10 mg/kg) by gavage at 10 am every day. […]

Structure (SMILES): Oc1ncnc2[nH]ncc12 [allopurinol]
- reduction of uric acid in UOX KO mice [1]: effective in reducing uric acid
- amount of uric acid excreted in the urine within 24 hours (FIG. 20) [2]: at a high level
- serum uric acid level (FIG. 22) [3]: significantly reduced

Structure (SMILES): CCc1oc2ccccc2c1C(=O)c1cc(Br)c(O)c(Br)c1 [benzbromarone]
- serum uric acid level (FIG. 22) [3]: significantly reduced

Structure (SMILES): Cc1nc(-c2ccc(OCC(C)C)c(C#N)c2)sc1C(=O)O [febuxostat]
- amount of uric acid excreted in the urine within 24 hours (FIG. 20) [2]: at a high level
